In patent US7982038B2 (priority 2003, dated 2011):

Molecular target: α7 nAChR subtype (Rattus norvegicus, UniProt Q05941)
Type: binding
Details: read-out: KD (saturation curve, one site model)

Chain of α7 nAChR subtype (Q05941 23-502 limits assumed): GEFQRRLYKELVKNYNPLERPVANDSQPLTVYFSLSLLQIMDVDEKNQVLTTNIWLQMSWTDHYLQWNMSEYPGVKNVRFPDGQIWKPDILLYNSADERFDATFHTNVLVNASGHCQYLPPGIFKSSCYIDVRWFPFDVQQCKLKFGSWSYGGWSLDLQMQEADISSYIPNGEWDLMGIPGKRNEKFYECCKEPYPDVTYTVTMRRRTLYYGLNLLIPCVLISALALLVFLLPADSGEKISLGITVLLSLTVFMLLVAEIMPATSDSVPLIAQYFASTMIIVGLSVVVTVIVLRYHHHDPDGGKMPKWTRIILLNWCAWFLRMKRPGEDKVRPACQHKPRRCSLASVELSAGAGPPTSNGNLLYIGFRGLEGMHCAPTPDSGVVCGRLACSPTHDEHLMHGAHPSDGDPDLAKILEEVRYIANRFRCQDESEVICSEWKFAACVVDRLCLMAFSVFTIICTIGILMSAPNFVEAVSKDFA

[^125I]-α-Bungarotoxin [^125I-α-BTX]
Kd: 1.67 nM
